Assay results from the NIST ThermoML archive (doi:10.1021/je900387e).
± gives the expanded uncertainty stated by the source.

Assay: xn = mol fraction of the nth substance listed
Conditions: Liquid, Pycnometric method

Q: For `CCCCBr` [1-bromobutane] + O=C=O, which mass density (308.2 K, 6320 kPa, x1 = 0.1495) is on record?
A: Its mass density is 1011 ± 4 kg/m3.

Q: What about the mass density (308.2 K, 6620 kPa, x1 = 0.0989) of the same compound?
A: Its mass density is 890 ± 4 kg/m3.

Q: What about the mass density (308.2 K, 6840 kPa, x1 = 0.0989) of the same compound?
A: Its mass density is 897 ± 4 kg/m3.

Q: And the mass density (308.2 K, 6850 kPa, x1 = 0.0683)?
A: The mass density was 834 ± 4 kg/m3.

Q: And the mass density (308.2 K, 6930 kPa, x1 = 0.0683)?
A: The mass density was 836 ± 4 kg/m3.

Q: And the mass density (308.2 K, 6980 kPa, x1 = 0.0683)?
A: The mass density was 838 ± 4 kg/m3.

Q: What about the mass density (308.2 K, 7040 kPa, x1 = 0.0989) of the same compound?
A: The mass density was 903 ± 4 kg/m3.

Q: What about the mass density (308.2 K, 7050 kPa, x1 = 0.0683) of the same compound?
A: Its mass density is 842 ± 4 kg/m3.

Q: And the mass density (308.2 K, 7090 kPa, x1 = 0.0461)?
A: Its mass density is 805 ± 4 kg/m3.

Q: And the mass density (308.2 K, 7090 kPa, x1 = 0.0683)?
A: Its mass density is 845 ± 4 kg/m3.

Q: What about the mass density (308.2 K, 7160 kPa, x1 = 0.0683) of the same compound?
A: The mass density was 848 ± 4 kg/m3.

Q: What about the mass density (308.2 K, 7230 kPa, x1 = 0.0461) of the same compound?
A: Its mass density is 811 ± 4 kg/m3.

Q: What about the mass density (308.2 K, 7240 kPa, x1 = 0.0683) of the same compound?
A: The mass density was 850 ± 4 kg/m3.

Q: What about the mass density (308.2 K, 7350 kPa, x1 = 0.0683) of the same compound?
A: Its mass density is 854 ± 4 kg/m3.

Q: And the mass density (308.2 K, 7350 kPa, x1 = 0.0989)?
A: The mass density was 910 ± 4 kg/m3.

Q: And the mass density (308.2 K, 7380 kPa, x1 = 0.0245)?
A: Its mass density is 712 ± 4 kg/m3.

Q: And the mass density (308.2 K, 7390 kPa, x1 = 0.0461)?
A: Its mass density is 817 ± 4 kg/m3.

Q: What about the mass density (308.2 K, 7400 kPa, x1 = 0.0245) of the same compound?
A: Its mass density is 711 ± 4 kg/m3.

Q: And the mass density (308.2 K, 7400 kPa, x1 = 0.1495)?
A: Its mass density is 1018 ± 4 kg/m3.

Q: What about the mass density (308.2 K, 7420 kPa, x1 = 0.0245) of the same compound?
A: The mass density was 713 ± 4 kg/m3.

Q: What about the mass density (308.2 K, 7440 kPa, x1 = 0.0245) of the same compound?
A: Its mass density is 716 ± 4 kg/m3.

Q: And the mass density (308.2 K, 7450 kPa, x1 = 0.0683)?
A: The mass density was 858 ± 4 kg/m3.

Q: And the mass density (308.2 K, 7480 kPa, x1 = 0.0245)?
A: The mass density was 720 ± 4 kg/m3.

Q: What about the mass density (308.2 K, 7520 kPa, x1 = 0.0245) of the same compound?
A: Its mass density is 724 ± 4 kg/m3.

Q: What about the mass density (308.2 K, 7540 kPa, x1 = 0.0683) of the same compound?
A: Its mass density is 861 ± 4 kg/m3.

Q: And the mass density (308.2 K, 7550 kPa, x1 = 0.0461)?
A: The mass density was 823 ± 4 kg/m3.

Q: What about the mass density (308.2 K, 7590 kPa, x1 = 0.0245) of the same compound?
A: The mass density was 729 ± 4 kg/m3.

Q: What about the mass density (308.2 K, 7640 kPa, x1 = 0.0245) of the same compound?
A: Its mass density is 734 ± 4 kg/m3.

Q: And the mass density (308.2 K, 7660 kPa, x1 = 0.0461)?
A: The mass density was 827 ± 4 kg/m3.

Q: What about the mass density (308.2 K, 7660 kPa, x1 = 0.0683) of the same compound?
A: The mass density was 864 ± 4 kg/m3.

Q: And the mass density (308.2 K, 7700 kPa, x1 = 0.0245)?
A: Its mass density is 738 ± 4 kg/m3.

Q: What about the mass density (308.2 K, 7700 kPa, x1 = 0.0989) of the same compound?
A: Its mass density is 916 ± 4 kg/m3.

Q: And the mass density (308.2 K, 7750 kPa, x1 = 0.0461)?
A: Its mass density is 830 ± 4 kg/m3.

Q: What about the mass density (308.2 K, 7770 kPa, x1 = 0.0245) of the same compound?
A: The mass density was 743 ± 4 kg/m3.

Q: What about the mass density (308.2 K, 7780 kPa, x1 = 0.0683) of the same compound?
A: The mass density was 867 ± 4 kg/m3.

Q: And the mass density (308.2 K, 7830 kPa, x1 = 0.0245)?
A: Its mass density is 747 ± 4 kg/m3.

Q: And the mass density (308.2 K, 7850 kPa, x1 = 0.0461)?
A: Its mass density is 833 ± 4 kg/m3.

Q: What about the mass density (308.2 K, 7920 kPa, x1 = 0.0245) of the same compound?
A: The mass density was 752 ± 4 kg/m3.

Q: What about the mass density (308.2 K, 7950 kPa, x1 = 0.0461) of the same compound?
A: Its mass density is 836 ± 4 kg/m3.

Q: And the mass density (308.2 K, 8010 kPa, x1 = 0.0245)?
A: Its mass density is 757 ± 4 kg/m3.

Q: And the mass density (308.2 K, 8060 kPa, x1 = 0.0461)?
A: The mass density was 839 ± 4 kg/m3.

Q: And the mass density (308.2 K, 8090 kPa, x1 = 0.0245)?
A: The mass density was 762 ± 4 kg/m3.

Q: What about the mass density (308.2 K, 8120 kPa, x1 = 0.0989) of the same compound?
A: Its mass density is 924 ± 4 kg/m3.

Q: What about the mass density (308.2 K, 8190 kPa, x1 = 0.0461) of the same compound?
A: Its mass density is 843 ± 4 kg/m3.

Q: What about the mass density (308.2 K, 8190 kPa, x1 = 0.1495) of the same compound?
A: The mass density was 1026 ± 4 kg/m3.

Q: And the mass density (308.2 K, 8200 kPa, x1 = 0.0245)?
A: The mass density was 767 ± 4 kg/m3.

Q: And the mass density (308.2 K, 8300 kPa, x1 = 0.0245)?
A: The mass density was 772 ± 4 kg/m3.

Q: What about the mass density (308.2 K, 8420 kPa, x1 = 0.0245) of the same compound?
A: Its mass density is 777 ± 4 kg/m3.

Q: What about the mass density (308.2 K, 8610 kPa, x1 = 0.0989) of the same compound?
A: Its mass density is 930 ± 4 kg/m3.

Q: And the mass density (308.2 K, 8620 kPa, x1 = 0.0245)?
A: Its mass density is 785 ± 4 kg/m3.

Q: What about the mass density (308.2 K, 8840 kPa, x1 = 0.0245) of the same compound?
A: The mass density was 793 ± 4 kg/m3.

Q: And the mass density (308.2 K, 9040 kPa, x1 = 0.1495)?
A: The mass density was 1033 ± 4 kg/m3.

Q: What about the mass density (308.2 K, 9100 kPa, x1 = 0.0245) of the same compound?
A: Its mass density is 801 ± 4 kg/m3.

Q: What about the mass density (308.2 K, 9190 kPa, x1 = 0.0989) of the same compound?
A: Its mass density is 938 ± 4 kg/m3.

Q: And the mass density (308.2 K, 9370 kPa, x1 = 0.0245)?
A: Its mass density is 809 ± 4 kg/m3.

Q: What about the mass density (308.2 K, 9680 kPa, x1 = 0.0245) of the same compound?
A: The mass density was 818 ± 4 kg/m3.

Q: What about the mass density (308.2 K, 9820 kPa, x1 = 0.0989) of the same compound?
A: Its mass density is 944 ± 4 kg/m3.

Q: And the mass density (308.2 K, 9960 kPa, x1 = 0.1495)?
A: Its mass density is 1041 ± 4 kg/m3.

Q: And the mass density (308.2 K, 10040 kPa, x1 = 0.0245)?
A: The mass density was 827 ± 4 kg/m3.

Q: What about the mass density (308.2 K, 10130 kPa, x1 = 0.0989) of the same compound?
A: The mass density was 948 ± 4 kg/m3.

Q: And the mass density (308.2 K, 10420 kPa, x1 = 0.0245)?
A: Its mass density is 835 ± 4 kg/m3.

Q: And the mass density (308.2 K, 10860 kPa, x1 = 0.0245)?
A: The mass density was 844 ± 4 kg/m3.

Q: What about the mass density (308.2 K, 10920 kPa, x1 = 0.1495) of the same compound?
A: Its mass density is 1048 ± 4 kg/m3.

Q: And the mass density (308.2 K, 11350 kPa, x1 = 0.0245)?
A: Its mass density is 853 ± 4 kg/m3.

Q: What about the mass density (308.2 K, 11370 kPa, x1 = 0.1495) of the same compound?
A: Its mass density is 1051 ± 4 kg/m3.

Q: And the mass density (308.2 K, 11880 kPa, x1 = 0.0245)?
A: Its mass density is 863 ± 4 kg/m3.

Q: And the mass density (308.2 K, 11910 kPa, x1 = 0.1495)?
A: Its mass density is 1055 ± 4 kg/m3.

Q: And the mass density (308.2 K, 12480 kPa, x1 = 0.0245)?
A: Its mass density is 873 ± 4 kg/m3.

Q: And the mass density (308.2 K, 12510 kPa, x1 = 0.1495)?
A: Its mass density is 1060 ± 4 kg/m3.

Q: What about the mass density (308.2 K, 13080 kPa, x1 = 0.1495) of the same compound?
A: The mass density was 1063 ± 4 kg/m3.

Q: What about the mass density (308.2 K, 13130 kPa, x1 = 0.0245) of the same compound?
A: Its mass density is 882 ± 4 kg/m3.

Q: And the mass density (308.2 K, 13590 kPa, x1 = 0.0245)?
A: The mass density was 889 ± 4 kg/m3.

Q: And the mass density (308.2 K, 13640 kPa, x1 = 0.1495)?
A: The mass density was 1067 ± 4 kg/m3.

Q: And the mass density (308.2 K, 14140 kPa, x1 = 0.0245)?
A: The mass density was 896 ± 4 kg/m3.

Q: What about the mass density (308.2 K, 14210 kPa, x1 = 0.1495) of the same compound?
A: The mass density was 1071 ± 4 kg/m3.

Q: And the mass density (308.2 K, 14290 kPa, x1 = 0.0245)?
A: Its mass density is 899 ± 4 kg/m3.

Q: And the mass density (308.2 K, 14850 kPa, x1 = 0.1495)?
A: The mass density was 1075 ± 4 kg/m3.

Q: What about the mass density (308.2 K, 15150 kPa, x1 = 0.1495) of the same compound?
A: The mass density was 1077 ± 4 kg/m3.

Q: What about the mass density (313.1 K, 6900 kPa, x1 = 0.1495) of the same compound?
A: The mass density was 986 ± 4 kg/m3.

Q: What about the mass density (313.1 K, 7230 kPa, x1 = 0.0989) of the same compound?
A: The mass density was 875 ± 4 kg/m3.

Q: What about the mass density (313.1 K, 7250 kPa, x1 = 0.1495) of the same compound?
A: Its mass density is 991 ± 4 kg/m3.

Q: And the mass density (313.1 K, 7480 kPa, x1 = 0.0683)?
A: The mass density was 811 ± 4 kg/m3.

Q: And the mass density (313.1 K, 7510 kPa, x1 = 0.1495)?
A: The mass density was 994 ± 4 kg/m3.

Q: What about the mass density (313.1 K, 7520 kPa, x1 = 0.0989) of the same compound?
A: Its mass density is 881 ± 4 kg/m3.

Q: And the mass density (313.1 K, 7590 kPa, x1 = 0.0683)?
A: The mass density was 814 ± 4 kg/m3.

Q: And the mass density (313.1 K, 7670 kPa, x1 = 0.0683)?
A: The mass density was 817 ± 4 kg/m3.

Q: What about the mass density (313.1 K, 7680 kPa, x1 = 0.0461) of the same compound?
A: Its mass density is 756 ± 4 kg/m3.

Q: And the mass density (313.1 K, 7730 kPa, x1 = 0.0461)?
A: The mass density was 758 ± 4 kg/m3.

Q: What about the mass density (313.1 K, 7760 kPa, x1 = 0.0683) of the same compound?
A: The mass density was 820 ± 4 kg/m3.

Q: And the mass density (313.1 K, 7770 kPa, x1 = 0.1495)?
A: Its mass density is 997 ± 4 kg/m3.

Q: What about the mass density (313.1 K, 7820 kPa, x1 = 0.0461) of the same compound?
A: The mass density was 764 ± 4 kg/m3.

Q: And the mass density (313.1 K, 7830 kPa, x1 = 0.0989)?
A: Its mass density is 882 ± 4 kg/m3.

Q: What about the mass density (313.1 K, 7860 kPa, x1 = 0.0683) of the same compound?
A: Its mass density is 823 ± 4 kg/m3.
